The record followed here is patent US12590091B2, “1H-pyrrolo[3,2-C]pyridine and 1H-pyrrolo[2,3-C]pyridine derivatives as TLR9 inhibitors for the treatment of fibrosis” (BRISTOL-MYERS SQUIBB COMPANY, priority 2020, dated 2026).

Some results are limits rather than exact numbers.

The target of the test is T1, human TLR7 (Homo sapiens, UniProt Q9NYK1).
T1 construct: host or cells: HEK-Blue cells
T1 sequence (Q9NYK1 27-1049): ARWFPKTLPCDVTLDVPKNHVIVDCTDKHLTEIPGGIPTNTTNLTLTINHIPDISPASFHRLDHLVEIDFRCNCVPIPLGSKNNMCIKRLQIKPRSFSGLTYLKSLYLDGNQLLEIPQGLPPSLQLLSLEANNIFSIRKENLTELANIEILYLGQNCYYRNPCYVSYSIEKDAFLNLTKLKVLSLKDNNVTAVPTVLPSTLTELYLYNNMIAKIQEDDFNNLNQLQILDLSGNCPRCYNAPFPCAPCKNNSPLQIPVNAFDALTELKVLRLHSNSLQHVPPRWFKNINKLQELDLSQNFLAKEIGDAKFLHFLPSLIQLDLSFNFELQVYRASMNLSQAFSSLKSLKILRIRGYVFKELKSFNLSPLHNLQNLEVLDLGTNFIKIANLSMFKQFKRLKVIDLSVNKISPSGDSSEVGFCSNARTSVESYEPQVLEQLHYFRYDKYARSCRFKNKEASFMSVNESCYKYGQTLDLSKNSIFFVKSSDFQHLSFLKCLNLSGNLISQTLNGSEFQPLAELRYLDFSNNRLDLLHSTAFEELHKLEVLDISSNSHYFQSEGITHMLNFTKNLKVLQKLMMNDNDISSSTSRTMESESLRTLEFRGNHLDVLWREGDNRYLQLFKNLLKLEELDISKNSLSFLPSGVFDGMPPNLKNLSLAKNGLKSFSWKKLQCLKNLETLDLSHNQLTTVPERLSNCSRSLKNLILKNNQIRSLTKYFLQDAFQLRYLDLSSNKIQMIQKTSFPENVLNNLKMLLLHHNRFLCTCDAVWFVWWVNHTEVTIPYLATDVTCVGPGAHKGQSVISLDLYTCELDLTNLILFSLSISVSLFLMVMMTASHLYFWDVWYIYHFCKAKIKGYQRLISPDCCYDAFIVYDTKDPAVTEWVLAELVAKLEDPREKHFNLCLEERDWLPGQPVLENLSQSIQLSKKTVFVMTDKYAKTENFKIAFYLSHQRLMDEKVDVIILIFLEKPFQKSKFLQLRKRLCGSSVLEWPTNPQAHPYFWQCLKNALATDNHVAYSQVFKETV
As to the kind of experiment: TLR7 inhibition reporter assay (HEK-Blue cells, SEAP reporter). Type of test: cell-based. The note with it: HEK-Blue cells overexpressing human TLR7, stimulated with gardiquimod 7.5 μM, 22 hour incubation. The procedure: TLR7/8/9 Inhibition Reporter Assays
HEK-Blue™-cells (Invivogen) overexpressing human TLR7, TLR8 or TLR9 receptors were used for screening inhibitors of these receptors using an inducible SEAP (secreted embryonic alkaline phosphatase) reporter gene under the control of the IFN-β minimal promoter fused to five NF-κB and AP-1-binding sites. Briefly, cells are seeded into Greiner 384 well plates (15000 cells per well for TLR7, 20,000 for TLR8 and 25,000 for TLR9) and then treated with test compounds in DMSO to yield a final dose response concentration range of 0.05 nM-50 μM. After a 30 minute compound pre-treatment at room temperature, the cells are then stimulated with a TLR7 ligand (gardiquimod at a final concentration of 7.5 μM), TLR8 ligand (R848 at a final concentration of 15.9 μM) or TLR9 ligand (ODN2006 at a final concentration of 5 nM) to activate NF-κB and AP-1 which induce the production of SEAP. After a 22 hour incubation at 37° C., 5% CO2, SEAP levels are determined with the addition of HEK-Blue™ Detection reagent (Invivogen), a cell culture medium that allows for detection of SEAP, according to manufacturer's specifications. The percent inhibition is determined as the % reduction in the HEK-Blue signal present in wells treated with agonist plus DMSO alone compared to wells treated with a known inhibitor.
(In general: In a reporter assay the amount or activity of a reporter protein is the signal.)

By IC50 is commonly meant the concentration at which inhibition is half-maximal. Low values mean greater potency in that assay, high ones weaker potency in that assay. The compound `COc1ccc(-c2cc3cnc(-c4ccc(N5CCN(C(=O)c6ccccc6)CC5)cc4)cc3n2C)cc1OC` [Example 29, (4-(4-(2-(3,4-dimethoxyphenyl)-1-methyl-1H-pyrrolo[3,2-c]pyridin-6-yl)phenyl)piperazin-1-yl)(phenyl)methanone] registered an IC50 of 14.4 µM.

Take `COc1ccc(-c2cc3cnc(-c4ccc(N5CCN(C(C)C)CC5)nc4)cc3n2C)cc1OC` [Example 31, 2-(3,4-dimethoxyphenyl)-6-(6-(4-isopropylpiperazin-1-yl)pyridin-3-yl)-1-methyl-1H-pyrrolo[3,2-c]pyridine]: the IC50 was 1.5 µM.

`COc1ccc(-c2c(C)n(C)c3cnc(-c4ccc(N5CCN(C(C)C)CC5)cc4)cc23)cc1OC` [Example 32, 3-(3,4-dimethoxyphenyl)-5-(4-(4-isopropylpiperazin-1-yl)phenyl)-1,2-dimethyl-1H-pyrrolo[2,3-c]pyridine] came in with a half-maximal inhibitory concentration (IC50) of 1.4 µM.

In the case of `COc1ccc(-c2c(C)n(C)c3cnc(-c4ccc(N5CCN(CCC(C)(C)O)CC5)cc4)cc23)cc1OC` [Example 33, 4-(4-(4-(3-(3,4-dimethoxyphenyl)-1,2-dimethyl-1H-pyrrolo[2,3-c]pyridin-5-yl)phenyl)piperazin-1-yl)-2-methylbutan-2-ol], the IC50 amounted to 3.2 µM.

Compound `Cc1nc(-c2ccc(N3CCN(CC(C)C)CC3)cc2)cc2c1cc(-c1ccc(S(C)(=O)=O)cc1)n2C` [Example 34, 6-(4-(4-isobutylpiperazin-1-yl)phenyl)-1,4-dimethyl-2-(4-(methylsulfonyl)phenyl)-1H-pyrrolo[3,2-c]pyridine] displayed an IC50 of 2.2 µM.

In the case of `Cc1nc(-c2ccc(N3CCN(C4CCOCC4)CC3)cc2)cc2c1cc(-c1ccc(S(C)(=O)=O)cc1)n2C` [Example 35, 1,4-dimethyl-2-(4-(methylsulfonyl)phenyl)-6-(4-(4-(tetrahydro-2H-pyran-4-yl)piperazin-1-yl)phenyl)-1H-pyrrolo[3,2-c]pyridine], it took 16.8 µM to reach half-maximal inhibition (IC50).

Consider `Cc1nc(-c2ccc(N3CCN(CCCO)CC3)cc2)cc2c1cc(-c1ccc(S(C)(=O)=O)cc1)n2C` [Example 36, 3-(4-(4-(1,4-dimethyl-2-(4-(methylsulfonyl)phenyl)-1H-pyrrolo[3,2-c]pyridin-6-yl)phenyl)piperazin-1-yl)propan-1-ol], for which half-maximal inhibition (IC50) was put at 4.7 µM.

The compound `Cc1nc(-c2ccc(N3CCN(C4CCOC4)CC3)cc2)cc2c1cc(-c1ccc(S(C)(=O)=O)cc1)n2C` (stereo not shown) [Example 37, 1,4-dimethyl-2-(4-(methylsulfonyl)phenyl)-6-(4-(4-(tetrahydrofuran-3-yl)piperazin-1-yl)phenyl)-1H-pyrrolo[3,2-c]pyridine] gave an IC50 of 11.7 µM.

As for `COCCN1CCN(c2ccc(-c3cc4c(cc(-c5ccc(S(C)(=O)=O)cc5)n4C)c(C)n3)cc2)CC1` [Example 38, 6-(4-(4-(2-methoxyethyl)piperazin-1-yl)phenyl)-1,4-dimethyl-2-(4-(methylsulfonyl)phenyl)-1H-pyrrolo[3,2-c]pyridine], inhibition was half-maximal at 2.6 µM (IC50).

The compound `Cc1nc(-c2ccc(C3CCN(CCCO)CC3)cc2)cc2c1cc(-c1ccc(S(C)(=O)=O)cc1)n2C` [Example 41, 3-(4-(4-(1,4-Dimethyl-2-(4-(methylsulfonyl)phenyl)-1H-pyrrolo[3,2-c]pyridin-6-yl)phenyl)piperidin-1-yl)propan-1-ol] yielded an IC50 of 4.9 µM.

Compound `Cc1nc(-c2cc(F)c(N3CCNCC3)cc2F)cc2c1cc(-c1ccc(S(C)(=O)=O)cc1)n2C` [Example 43, 6-(2,5-Difluoro-4-(piperazin-1-yl)phenyl)-1,4-dimethyl-2-(4-(methylsulfonyl)phenyl)-1H-pyrrolo[3,2-c]pyridine] showed an IC50 of 6.2 µM. The IC50 values of the last two compounds are within 1.5-fold of each other.

Turning to `Cc1nc(-c2ccc(CN3CCN(CC(C)(C)O)CC3)cc2)cc2c1cc(-c1ccc(S(C)(=O)=O)cc1)n2C` [Example 44, 1-(4-(4-(1,4-Dimethyl-2-(4-(methylsulfonyl)phenyl)-1H-pyrrolo[3,2-c]pyridin-6-yl)benzyl)piperazin-1-yl)-2-methylpropan-2-ol], the IC50 was 0.64 µM.

Compound `Cc1nc(-c2ccc(N3CCN(CCCO)CC3)cc2)cc2c1cc(-c1ccc(S(=O)(=O)C3CC3)cc1)n2C` [Example 47, 3-(4-(4-(2-(4-(cyclopropylsulfonyl)phenyl)-1,4-dimethyl-1H-pyrrolo[3,2-c]pyridin-6-yl)phenyl)piperazin-1-yl)propan-1-ol] came in with an IC50 of 14.7 µM.

Consider `COCCN1CCN(c2ccc(-c3cc4c(cc(-c5ccc(S(=O)(=O)C6CC6)cc5)n4C)c(C)n3)cc2)CC1` [Example 48, 2-(4-(cyclopropylsulfonyl)phenyl)-6-(4-(4-(2-methoxyethyl)piperazin-1-yl)phenyl)-1,4-dimethyl-1H-pyrrolo[3,2-c]pyridine], for which inhibition was half-maximal at 2.1 µM (IC50). This IC50 lies about 7-fold lower than the previous one.

`CC(C)CN1CCN(c2ccc(-c3cc4c(cn3)cc(-c3ccc(S(C)(=O)=O)cc3)n4C)cc2)CC1` [Example 53, 6-(4-(4-isobutylpiperazin-1-yl)phenyl)-1-methyl-2-(4-(methylsulfonyl)phenyl)-1H-pyrrolo[3,2-c]pyridine] showed an IC50 above 50 µM.

Take `CC(C)N1CCN(c2ccc(-c3cc4c(cn3)cc(-c3ccc(S(C)(=O)=O)cc3)n4C)cc2)CC1` [Example 54, 6-(4-(4-isopropylpiperazin-1-yl)phenyl)-1-methyl-2-(4-(methylsulfonyl)phenyl)-1H-pyrrolo[3,2-c]pyridine]: the concentration for half-maximal inhibition (IC50) worked out at 4.6 µM.

For the compound `Cc1nc(-c2ccc(N3CCN(CCCO)CC3)c(F)c2F)cc2c1cc(-c1ccc(S(C)(=O)=O)cc1)n2C` [Example 55, 3-(4-(4-(1,4-dimethyl-2-(4-(methylsulfonyl)phenyl)-1H-pyrrolo[3,2-c]pyridin-6-yl)-2,3-difluorophenyl)piperazin-1-yl)propan-1-ol], inhibition was half-maximal at 5.7 µM (IC50).

Compound `Cc1nc(-c2cc(F)c(N3CCN(CCCO)CC3)cc2F)cc2c1cc(-c1ccc(S(C)(=O)=O)cc1)n2C` [Example 56, 3-(4-(4-(1,4-dimethyl-2-(4-(methylsulfonyl)phenyl)-1H-pyrrolo[3,2-c]pyridin-6-yl)-2,5-difluorophenyl)piperazin-1-yl)propan-1-ol] had an IC50 of 18.5 µM.

Take `Cc1nc(-c2ccc(CN3CCN(CC(C)C)CC3)cc2)cc2c1cc(-c1ccc(S(C)(=O)=O)cc1)n2C` [Example 57, 6-(4-((4-isobutylpiperazin-1-yl)methyl)phenyl)-1,4-dimethyl-2-(4-(methylsulfonyl)phenyl)-1H-pyrrolo[3,2-c]pyridine]: the IC50 was determined as 6 µM.

With `Cc1nc(-c2ccc(CN3CCN(CCCO)CC3)cc2)cc2c1cc(-c1ccc(S(C)(=O)=O)cc1)n2C` [Example 58, 3-(4-(4-(1,4-dimethyl-2-(4-(methylsulfonyl)phenyl)-1H-pyrrolo[3,2-c]pyridin-6-yl)benzyl)piperazin-1-yl)propan-1-ol], half-maximal inhibition (IC50) required 8.2 µM.

In turn, `Cc1nc(-c2ccc(CN3CCC(C)(O)CC3)cc2)cc2c1cc(-c1ccc(S(C)(=O)=O)cc1)n2C` [Example 59, 1-(4-(1,4-dimethyl-2-(4-(methylsulfonyl)phenyl)-1H-pyrrolo[3,2-c]pyridin-6-yl)benzyl)-4-methylpiperidin-4-ol] showed an IC50 of 12.9 µM.

In turn, `Cc1nc(-c2ccc(CN3CCN(CCC(C)(C)O)CC3)cc2)cc2c1cc(-c1ccc(S(C)(=O)=O)cc1)n2C` [Example 60, 4-(4-(4-(1,4-dimethyl-2-(4-(methylsulfonyl)phenyl)-1H-pyrrolo[3,2-c]pyridin-6-yl)benzyl)piperazin-1-yl)-2-methylbutan-2-ol] came in with an IC50 of 5.4 µM. This IC50 lies about 2.4-fold lower than the previous one.
